Experiments:
CYP1A2 = molecular target: T1, CYP1A2 (Rattus norvegicus, UniProt P04799); assay: CYP450 inhibition in liver microsomes, probe substrate; assay type: biochemical; conditions: 30 min
T1 construct: from tissue; host or cells: rat liver microsomes
T1 sequence (P04799 1-513): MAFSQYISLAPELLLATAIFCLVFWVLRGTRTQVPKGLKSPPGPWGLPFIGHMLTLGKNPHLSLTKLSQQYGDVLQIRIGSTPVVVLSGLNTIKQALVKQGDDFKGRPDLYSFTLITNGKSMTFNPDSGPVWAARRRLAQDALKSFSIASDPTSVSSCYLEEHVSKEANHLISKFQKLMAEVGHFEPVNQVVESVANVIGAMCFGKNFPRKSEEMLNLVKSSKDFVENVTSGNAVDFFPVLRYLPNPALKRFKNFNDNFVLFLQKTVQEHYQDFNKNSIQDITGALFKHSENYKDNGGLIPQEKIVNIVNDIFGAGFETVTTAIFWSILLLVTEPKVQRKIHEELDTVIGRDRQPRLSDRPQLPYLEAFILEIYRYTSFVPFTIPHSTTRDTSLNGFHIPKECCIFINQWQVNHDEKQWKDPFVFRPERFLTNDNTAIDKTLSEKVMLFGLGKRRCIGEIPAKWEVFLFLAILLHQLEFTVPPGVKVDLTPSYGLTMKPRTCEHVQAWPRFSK
Experimental: (§1) Inhibition effects of EDT on cytochrome P450 were evaluated with rat liver microsomes in vitro[43]. Briefly, 12.8 mg EDT was dissolved in methanol and stored at 4 °C as reserve solution. A variety of specific probe substrate (1 μL), EDT solution (1 μL), incubation mixture (193 μL) in which contained glucose-6-phosphate, glucose-6-phosphate dehydrogenase, potassium phosphate buffer, magnesium chloride buffer and PBS buffer, were added into 5 μL liver microsomes to start the reaction at 37 °C. The final concentration of EDT in each group was 0.1, 1, 5, 10, 50, 100 μM. After 30 min, the reaction was terminated by adding the same volume of pre-cooled acetonitrile into the incubation system. After centrifugation for 10 min (8000×g at 4 °C), 10 μL supernatant was removed to analyze the metabolites of specific probe substrate by HPLC. The effects of EDT on CYP450 subtypes were evaluated using formula as follow: (1 − Cn/C0) × 100%, where Cn was substrate metabolite of different concentration of EDT, and C0 was metabolite of blank group.

CYP2A6 = assay: as above; assay type: biochemical; conditions: CYP2A6, rat liver microsomes
Experimental: as §1

CYP2C19 = assay: as above; assay type: biochemical; conditions: CYP2C19, rat liver microsomes
Experimental: as §1

CYP2C9 = assay: as above; assay type: biochemical; conditions: CYP2C9, rat liver microsomes
Experimental: as §1

CYP2D6 = assay: as above; assay type: biochemical; conditions: CYP2D6, rat liver microsomes
Experimental: as §1

CYP2E1 = molecular target: T2, CYP2E1 (Rattus norvegicus, UniProt P05182); assay: as above; assay type: biochemical; conditions: 30 min
T2 construct: from tissue; host or cells: rat liver microsomes
Experimental: as §1

CYP3A4 = assay: as above; assay type: biochemical; conditions: CYP3A4, rat liver microsomes
Experimental: as §1

[1] = Microsomal stability assay, human; assay type: in vitro ADME; conditions: human liver microsomes
Experimental: Mouse and human liver microsomes were thawed slowly on ice. A total of 5 mg/mL of microsomes, 2 μL of a 100 μM solution of EDT and 183 μL of 100 mM phosphate buffer were incubated 5 min at 37 °C in a water bath. Reactions were initiated using 10 μL of 20 mM NADPH. Samples were incubated in three replicates at 37 °C under gentle agitation at 150 rpm. At 0, 5, 15, 30, and 60 min, reactions were terminated by the addition of 180 μL of acetonitrile. After centrifugation (4000 rpm, 10 min), samples were then analyzed by liquid chromatography/tandem mass spectrometry (LC–MS/MS). Peak areas of the respective time point of the compound were normalized to the peak area at time point 0 min. Then half-life was calculated using linear regression from log percentage (t1/2 = − 0.693/k).

T2 sequence (P05182 whole entry): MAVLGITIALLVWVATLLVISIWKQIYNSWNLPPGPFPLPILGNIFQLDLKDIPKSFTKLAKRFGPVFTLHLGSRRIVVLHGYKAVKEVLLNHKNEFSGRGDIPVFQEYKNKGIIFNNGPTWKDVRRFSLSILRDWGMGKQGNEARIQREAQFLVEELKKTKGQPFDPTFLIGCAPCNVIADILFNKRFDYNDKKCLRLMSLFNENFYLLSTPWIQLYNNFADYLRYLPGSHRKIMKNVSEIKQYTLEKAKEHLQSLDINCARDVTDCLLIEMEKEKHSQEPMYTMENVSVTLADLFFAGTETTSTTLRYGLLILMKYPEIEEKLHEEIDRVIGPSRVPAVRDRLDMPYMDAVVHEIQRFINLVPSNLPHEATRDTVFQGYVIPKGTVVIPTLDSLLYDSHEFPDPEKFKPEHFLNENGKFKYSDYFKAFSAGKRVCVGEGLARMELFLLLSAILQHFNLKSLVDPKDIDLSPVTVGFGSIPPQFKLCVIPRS

With `C=CC1(C)CC(OC(=O)CSc2nc(C)c(C(=O)OCC)c(C)n2)C2(C)C(C)CCC3(CCC(=O)C32)C(C)C1O` (stereo not drawn) [EDT, 14-O-[(5-ethoxycarbonyl-4,6-dimethylpyrimidine-2-yl)thioacetyl] mutilin] the IC50 (CYP1A2) was > 100 µM, the IC50 at 30 min (CYP2A6) was > 100 µM and the IC50 at 30 min (CYP2C19) was > 100 µM. The IC50 at 30 min (CYP2C9) was > 100 µM, the IC50 at 30 min (CYP2D6) was > 100 µM and the IC50 (CYP2E1) was 88.5 µM. The IC50 at 30 min (CYP3A4) was 9.25 µM, the half-life at 1 μM [1] was 43.6 min and the microsomal CLint at 1 μM [1] was 31.8 µL/min/mg.
